Laboratory results taken from patent US6710047B2, “Phthalazines with angiogenesis inhibiting activity” (Novartis AG, priority 1997, dated 2004).
Structures can show the parent of a compound that is named as a salt.

How the values were obtained:
[1] = target: PDGF-receptor kinase; assay: Inhibition of PDGF-receptor kinase (method of Trinks et al.); assay type: biochemical
Experimental: An inhibitory effect can also be found especially on PDGF-receptor kinase, which is determined according to the method described by Trinks et al. (see J. Med. Chem. 37(7): 1015-27 [1994]). Inhibitory activity is shown here in the micromolar range using a compound of formula I (or an N-oxide thereof); […]

[2] = target: T1, Flt-1 VEGF-receptor tyrosine kinase (Homo sapiens, UniProt P17948); assay: Test for activity against Flt-1 VEGF-receptor tyrosine kinase
T1 sequence (P17948 827-1158 limits assumed): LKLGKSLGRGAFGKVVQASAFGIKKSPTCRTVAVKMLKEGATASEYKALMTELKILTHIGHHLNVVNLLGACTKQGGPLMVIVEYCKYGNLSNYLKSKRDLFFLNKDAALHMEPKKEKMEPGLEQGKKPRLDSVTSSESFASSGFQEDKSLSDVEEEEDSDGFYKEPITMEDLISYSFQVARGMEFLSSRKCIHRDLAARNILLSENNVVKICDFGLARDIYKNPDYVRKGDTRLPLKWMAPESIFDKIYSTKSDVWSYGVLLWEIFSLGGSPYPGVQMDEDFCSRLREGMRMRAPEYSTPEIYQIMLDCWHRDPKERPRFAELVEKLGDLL
Experimental: Test for activity against VEGF-receptor tyrosine kinase. The test is conducted using Flt-1 VEGF-receptor tyrosine kinase. […] The reaction is then ended by the addition of 10 μl 0.25 M ethylenediaminetetraacetate (EDTA) pH 7. Using a multichannel dispenser (LAB SYSTEMS, USA), an aliquot of 20 μl is applied to a PVDF (=polyvinyl difluoride) Immobilon P membrane (Millipore, USA), incorporating a Millipore microtiter filter manifold, and connected to a vacuum.
The test is conducted using Flt-1 VEGF-receptor tyrosine kinase, as described hereinabove.

SMILES | IC50 [1] | melting point | IC50 [2]
Clc1ccc(Nc2nnc(Cc3ccncc3)c3ccccc23)cc1 [Example 1, 1-(4-Chloroanilino)-4-(4-pyridylmethyl)phthalazine dihydrochloride] | ~1000 nM |  | 
Clc1ccc(Nc2nnc(Cc3ccncc3)c3ccccc23)cc1Cl [Example 21, 1-(3,4-Dichloroanilino)-4-(4-pyridylmethyl)phthalazine] |  | 249 to 250 °C | 410 nM
Fc1ccc(Nc2nnc(Cc3ccncc3)c3ccccc23)cc1 [Example 17, 1-(4-Fluoroanilino)-4-(4-pyridylmethyl)phthalazine] |  | 129 to 131 °C | 290 nM
